According to ChEMBL document CHEMBL1149255, “An in silico approach to discovering novel inhibitors of human sirtuin type 2” (J Med Chem, 2004):
pIC50: −log10 of the molar value.

Each compound was assayed against T1, NAD-dependent protein deacetylase sirtuin-2 (Homo sapiens, UniProt Q8IXJ6) (assay: Inhibition of human recombinant GST-tagged SIRT2 by histone deacetylase assay).
T1 sequence (Q8IXJ6 whole entry): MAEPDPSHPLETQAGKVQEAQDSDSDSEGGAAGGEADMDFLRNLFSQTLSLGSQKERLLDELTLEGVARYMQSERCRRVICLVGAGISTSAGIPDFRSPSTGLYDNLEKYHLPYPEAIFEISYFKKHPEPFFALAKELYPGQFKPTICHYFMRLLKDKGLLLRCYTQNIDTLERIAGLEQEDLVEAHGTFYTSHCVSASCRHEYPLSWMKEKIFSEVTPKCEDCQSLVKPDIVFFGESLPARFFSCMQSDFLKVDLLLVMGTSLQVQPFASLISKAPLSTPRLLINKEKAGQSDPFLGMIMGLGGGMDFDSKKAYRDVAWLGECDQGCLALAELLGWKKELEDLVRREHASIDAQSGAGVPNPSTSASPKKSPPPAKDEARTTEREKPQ

| Compound | pIC50 |
| --- | --- |
| Cc1ncc(CSc2ccccc2/N=C/c2cc(Cl)cc(Cl)c2O)c(CO)c1O | 4.13 |
| Oc1ccccc1/C=N/c1ccc(OCCCCOc2ccc(/N=C/c3ccccc3O)cc2)cc1 | < 3.00 |
| Oc1ccccc1/C=N/c1ccc(OCCCOc2ccc(/N=C/c3ccccc3O)cc2)cc1 | < 3.00 |
| Oc1ccc(/C=N/c2ccc(Cc3ccc(/N=C/c4ccc(O)c(O)c4)cc3)cc2)cc1O | < 3.00 |
| O=c1cc(CSc2n[nH]c(=O)n2C2Cc3ccccc3C2)c2ccc(O)cc2o1 | < 3.52 |
| Oc1ccc(CCc2nnc(S)n2-c2ccc(Cl)cc2)cc1 | < 3.52 |
| O=C1c2cccc3c(SCCO)ccc(c23)C(=O)N1CCc1ccccn1 | < 3.00 |

More lines, now with the values ahead:

| pIC50 | Compound |
| --- | --- |
| < 3.00 | O=C(O)/C=C/C(=O)Nc1cccc(NC(=O)c2ccccc2O)c1 |
| < 3.00 | O=C(O)CCCCOc1ccc2oc3ccccc3c(=O)c2c1 |
| < 3.52 | O=C(Nc1ccc(COc2ccccc2)cc1)Nc1cccc(C(=O)O)c1 |
| < 3.00 | CC(C)(C)OC(=O)NC(Cc1ccccc1)C(=O)OCc1ccc(CC(=O)O)cc1 (stereo not given) |
| < 3.00 | COc1cc(NC(=O)c2ccccc2)c(C)cc1NC(=O)CC(CC(=O)O)c1ccccc1 (stereo not given) |
| < 3.00 | CN(CCO)c1ccc(C(=O)c2ccc(N(C)CCO)cc2)cc1 |
| < 3.00 | O=C(O)CSCC(=O)N1CCN(c2cc(C(F)(F)F)nc3ccccc23)CC1 |
| 4.25 | O=C1c2ccccc2C(=O)c2c(NCCc3ccc(O)cc3)ccc(NCCc3ccc(O)cc3)c21 |
